The text below walks through data of PubChem BioAssay AID463203 (Broad Institute, 2010).

Calls of active or inactive are those of the source.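 How the source made its calls: active means more than half of replicate measurements showing over 20% loss of kinase signal relative to plate controls; inconclusive means some but at most half of replicates over 20% loss; inactive means no replicate over 20% signal loss.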 Bounds are passed on as bounds.

The target of the experiment is Glycogen synthase kinase-3 alpha (Homo sapiens) (UniProt P49840). Description: concentration-response blocking of human GSK3A – biochemical, luminescence, cell-free homogeneous, retest, dose response (AID 463203). As to conditions: GSK-3 alpha enzyme, ADP-Glo luminescence, 60 min.
Glycogen synthase kinase-3 alpha (Homo sapiens), sequence (P49840 whole entry, looked up): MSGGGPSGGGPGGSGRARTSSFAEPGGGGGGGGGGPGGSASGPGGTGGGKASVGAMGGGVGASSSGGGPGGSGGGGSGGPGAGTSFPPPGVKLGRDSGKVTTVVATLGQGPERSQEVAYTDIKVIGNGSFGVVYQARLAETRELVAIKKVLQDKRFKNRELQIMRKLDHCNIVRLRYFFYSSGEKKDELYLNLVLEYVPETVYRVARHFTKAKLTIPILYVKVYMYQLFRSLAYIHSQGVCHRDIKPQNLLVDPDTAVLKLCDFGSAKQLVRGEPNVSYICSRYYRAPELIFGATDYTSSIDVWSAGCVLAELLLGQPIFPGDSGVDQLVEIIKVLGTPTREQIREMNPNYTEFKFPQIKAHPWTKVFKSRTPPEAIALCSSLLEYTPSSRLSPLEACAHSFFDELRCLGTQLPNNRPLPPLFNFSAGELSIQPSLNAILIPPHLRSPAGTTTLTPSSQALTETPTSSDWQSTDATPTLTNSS
Broadly, the AC50 is the midpoint of the concentration-response curve, whichever way the signal moves. With `O=C(Nc1ccccc1-c1nnc(SCc2ccc(Cl)cc2)o1)c1ccccc1`, the AC50 is > 30 µM (inactive).
In the case of `Cc1sc2ncnc(NCCN3CCOCC3)c2c1C`, the AC50 is > 30 µM (inactive).
In the case of `Cc1ccccc1CSc1nnc(-c2ccncc2)n1C`, the AC50 is > 30 µM (inactive).
On to `Cc1ccc(C(=O)N/C(=C\c2ccc(-c3ccc(Cl)cc3)o2)C(=O)NCCCN(C)C)cc1`, for which the AC50 was > 30 µM (inactive).
For the compound `Cn1c(SCc2nc(-c3ccc(Cl)cc3)no2)nnc1-c1ccccc1`, the AC50 is > 30 µM (inactive).
As to `CC(=O)Nc1ccc(Oc2ccc3c(c2)C(=O)NC3=O)cc1`, the concentration at half-maximal activity (AC50) is 25 µM.
On to `Nc1c(CO)nnn1-c1ccccc1`, for which the AC50 was 11.4 µM.
Turning to `Cc1ccc(NC(=O)CSCc2nc3c(nnn3Cc3ccc(F)cc3)c(=O)[nH]2)c(C)c1`, the AC50 is > 30 µM (inactive).
`Cc1nnc(NC(=O)Oc2ccccc2)s1`: the AC50 was > 30 µM (inactive).
The figure for `COC(=O)CSc1nc(NCC(C)C)nc(N2CCOCC2)n1` is > 30 µM (inactive); for `Cc1n[nH]c(=S)n1/N=C/c1ccc(-c2ccccc2[N+](=O)[O-])o1` it is 24.9 µM; for `COc1c(NC(C)=O)c2ccccc2c2ccccc12` it is > 30 µM (inactive).
The same measure for `O=C(Nc1cccc(-c2cnc3ccccc3n2)c1)c1cccc(NC(=O)c2ccco2)c1`: > 30 µM (inactive); for `CS(=O)(=O)Nc1ccc(-c2cc(/C=C3\SC(N)=NC3=O)c[nH]c2=O)cc1`: 7.53 µM.
With `COc1cc2c(ccc3cc(OC)c(OC)c(O)c32)cc1O`, the half-maximal activity concentration (AC50) was 20.8 µM.
With `Nn1c(-c2ccc(O)cc2)nnc1-c1ccc(O)cc1`, the AC50 was > 30 µM (inactive).
`O=c1cc(-c2ccccc2Cl)oc2c(NS(=O)(=O)c3cc(Cl)cc(Cl)c3O)ccc(O)c12`: the AC50 was > 30 µM (inactive).
For the compound `CCOc1ccccc1-n1c(O)c(C=NCCCn2ccnc2)c(=O)[nH]c1=O`, the AC50 was 20.5 µM.
The figure for `O=C(CCN1CCOCC1)Nc1cccc(Br)c1` is > 30 µM (inactive); for `Cc1ccc2nc(-c3ccncc3)[nH]c2c1` it is > 30 µM (inactive); for `CCc1nnc(NC(=O)CCc2nc(C3=CCN(C)CC3)no2)s1` it is > 30 µM (inactive).
On to `Cc1ccc(N=CC2=C(O)CC(C)(C)CC2=O)nc1`, for which the AC50 is > 30 µM (inactive).
As to `O=C(NC1=NCCS1)c1ccc(Cl)cc1`, the AC50 is > 30 µM (inactive).
On to `Cn1c(=O)c2c([nH]c(=O)n2C)n(Cc2ccccc2)c1=O`, for which the AC50 is > 30 µM (inactive).
Take `COc1ccc(OC)c(C2CC(=O)Nc3n[nH]c(-c4ccccc4)c32)c1` (stereo not given): the AC50 was > 30 µM (inactive).
As for `CN(Cc1c(C(=O)N/N=C/c2cccc(O)c2)nnn1-c1nonc1N)c1ccccc1`, the half-maximal activity concentration (AC50) was 2.8 µM.
On to `CCOC(=O)c1nc(NCc2cccnc2)c2ccccc2n1`, for which the AC50 was > 30 µM (inactive).
In the case of `COc1ccc(C(=O)NCC(=O)N/N=C(C)\C=C\c2ccccc2)cc1OC`, the AC50 was > 30 µM (inactive).
For the compound `C=C(C)CSc1nnc([C@@H](N)Cc2c[nH]c3ccccc23)o1`, the AC50 was > 30 µM (inactive).
On to `CC(C)c1c(C(=O)N/N=C/c2ccncc2)nnn1-c1nonc1N`, for which the AC50 is > 30 µM (inactive).
The same measure for `CCOC(=O)c1cc(-c2ccc(C)cc2)n(CCC(=O)NC(C)CC)c1C` (stereo not given): > 30 µM (inactive); for `Cc1cc(C)c[n+](C2=C([O-])c3ccccc3C(=O)/C2=N\S(=O)(=O)c2cccs2)c1`: > 30 µM (inactive); for `CCOc1cc(/C=C2\N=C3CCCCCN3C2=O)ccc1O`: 19.3 µM.
As for `COc1ccc(NC(=O)Nc2ccccc2F)c(C)c1`, the AC50 was > 30 µM (inactive).
In the case of `COc1ccc2nc(NC(=O)C3CCCN3S(=O)(=O)c3ccc(C)cc3)sc2c1` (stereo not given), the AC50 is > 30 µM (inactive).
On to `CCOC(=O)N1CCc2c(sc3nc4n(c(=O)c23)N=C(c2ccc(OC)cc2)CS4)C1`, for which the AC50 was > 30 µM (inactive).
In the case of `O=C(OC1CO[C@H]2O[C@@H]1[C@H](OC(=O)c1ccccc1)[C@H]2OC(=O)c1ccccc1)c1ccccc1` (stereo not given in full), the AC50 is > 30 µM (inactive).
Regarding `CC(=O)N1CCN(c2ccccc2NC(=O)c2ccc(Br)o2)CC1`, the concentration at half-maximal activity (AC50) is 10.3 µM.
On to `Cc1cc2nc(-c3ccc(SCC(=O)NC(C)C)nc3)[nH]c2cc1C`, for which the AC50 was > 30 µM (inactive).
As for `Cn1c(SCc2cnc(-c3ccccc3)s2)nnc1C1COc2ccccc2O1` (stereo not given), the AC50 is > 30 µM (inactive).
In the case of `COc1ccc(-c2noc(CSc3nc(-c4ccccc4)cc(=O)[nH]3)n2)cc1OC`, the AC50 is > 30 µM (inactive).
For `Cc1ccc(CSCCNC(=O)c2ccc(C)cc2)cc1`, the AC50 is > 30 µM (inactive).
For `O=[N+]([O-])c1ccc(-c2nnc(CNC3CCCC3)o2)cc1`, the AC50 was > 30 µM (inactive).
With `COCCCNC(=O)C(=O)NC1CCCCC1C` (stereo not given), the AC50 is > 30 µM (inactive).
The figure for `COCCn1c(SCC(=O)Nc2cc(C)on2)nc2ccccc21` is > 30 µM (inactive); for `O=C(CSCc1ccc([N+](=O)[O-])cc1)N/N=C/c1cccnc1` it is > 30 µM (inactive); for `Cn1c(SCC(=O)N/N=C/C=C\c2ccco2)nc2ccccc21` it is > 30 µM (inactive).
Turning to `Cc1nc2ncnn2c(C)c1Cc1cccc(F)c1`, the AC50 was > 30 µM (inactive).
For `N/C(=N\OC(=O)c1ccc2ccccc2c1)c1cccc([N+](=O)[O-])c1`, the AC50 was > 30 µM (inactive).
Regarding `C[C@H](CO)N1C[C@H](C)[C@@H](CN(C)S(=O)(=O)c2ccccc2)Oc2c(NS(=O)(=O)c3ccc(F)cc3)cccc2C1=O`, the AC50 was > 30 µM (inactive).
With `Cc1ccc(C(=O)Nc2cccc(C(=O)NC3CCCCC3)c2)cc1`, the AC50 is > 30 µM (inactive).
As to `Cc1c(/C=N/Nc2ccc([N+](=O)[O-])cn2)c2ccccc2n1Cc1ccccc1`, the AC50 was > 30 µM (inactive).
Regarding `Cc1ccc(OCC(=O)N2CCN(c3nnc(-c4ccccc4)c4ccccc34)CC2)cc1`, the AC50 is > 30 µM (inactive).
Take `Cc1ccc(C(=O)N/C(=C/c2ccc(-c3cccc([N+](=O)[O-])c3)o2)C(=O)NC(C)C)cc1`: the AC50 is > 30 µM (inactive).
The same measure for `N/C(=N\OC(=O)c1ccc(Br)cc1)c1cccc([N+](=O)[O-])c1`: > 30 µM (inactive); for `N#Cc1c2c(c(NCc3ccco3)n3c1nc1ccccc13)CCC2`: > 30 µM (inactive); for `COc1ccccc1C(=O)NNC(=O)c1cccc(Cl)c1`: > 30 µM (inactive).
On to `O=C(O)C1CCCC[C@H]1C(=O)Nc1ncc([N+](=O)[O-])s1` (stereo not given in full), for which the AC50 is > 30 µM (inactive).
Turning to `Cc1cccc2cc(C#N)c(NCCNC(=S)NCCCN3CCOCC3)nc12`, the AC50 is > 30 µM (inactive).
On to `Cc1cc2nc(-c3ccc(=O)[nH]c3)n(Cc3ccccc3)c2cc1C`, for which the AC50 is > 30 µM (inactive).
Turning to `O=C(Nc1ccccc1C(=O)NC1CCCCC1)c1ccco1`, the AC50 was > 30 µM (inactive).
Regarding `CCS(=O)(=O)N1CCN(c2ccnc3cc(Cl)ccc23)CC1`, the AC50 was > 30 µM (inactive).
The figure for `C[C@@H](NC(=O)c1[nH]cnc1C(=O)Nc1ccon1)c1ccccc1` is 11.6 µM; for `NC(=O)c1sc2nc3c(c(-c4ccccc4)c2c1N)CCC3` it is 13.9 µM.
For `COc1ccc(NC(=O)CN(C)S(=O)(=O)c2cnc[nH]2)cc1`, the AC50 is > 30 µM (inactive).
As for `CCCCn1c(O)c(C(C)=NCCCn2ccnc2)c(=O)[nH]c1=O`, the concentration at half-maximal activity (AC50) was 11.1 µM.
The figure for `Fc1cccc(/C=N/Nc2ccccn2)c1` is > 30 µM (inactive).
The same measure for `Cc1cccc(NC(=O)CSc2nnc([C@@H](N)Cc3c[nH]c4ccccc34)o2)c1C`: > 30 µM (inactive); for `O=c1[nH]ncc(N/N=C\c2ccncc2)c1Cl`: 25.4 µM.
For `Cc1ccc(C)c(/C=N/Nc2ccccn2)c1`, the AC50 is > 30 µM (inactive).
The figure for `CCn1c(SCC(=O)Nc2ccc(C)cc2)nnc1-c1ccc(O)cc1` is > 30 µM (inactive); for `CC(C)c1ccc(C2CC(=O)N3CN(Cc4ccco4)CSC3=C2C#N)cc1` (stereo not given) it is 21 µM.
For `Cc1ccccc1CNC(=O)c1cc(COc2ccc(F)cc2F)on1`, the AC50 was > 30 µM (inactive).
With `Cc1nnc(N/N=C/c2ccc(-c3ccc(Br)cc3)o2)n1N`, the AC50 is 15.4 µM.
Take `CC(=O)Nc1c(C)ccc2nsnc12`: the AC50 is > 30 µM (inactive).
Consider `O=C(NC1(C(F)(F)F)NC(=O)N(Cc2cccnc2)C1=O)c1ccccc1` (stereo not given), for which the AC50 was > 30 µM (inactive).
The same measure for `O=C1/C(=C/c2ccc3c(c2)OCO3)Oc2cc(OCC(=O)N3CC(O)C[C@H]3C(=O)O)ccc21` (stereo not given in full): 4.07 µM; for `O=[N+]([O-])c1ccc(N/N=C/c2cn(Cc3ccc(F)cc3)c3ccccc23)nc1`: > 30 µM (inactive).
Regarding `Cc1c(C(=O)OC(C)C)[nH]c2c1C(=O)CCC2`, the AC50 was > 30 µM (inactive).
As to `N#C/C(=N\Nc1ccccc1Cl)C(=O)c1ccccc1`, the AC50 was > 30 µM (inactive).
Take `Cc1ccnc(NC(=O)CCC(=O)N(CC(=O)NCc2ccc(F)cc2)Cc2ccccc2)c1`: the AC50 is 11.4 µM.
For the compound `COc1cc(NC(=O)c2cc([N+](=O)[O-])ccc2NC(=O)CNC2CCCCC2C)cc(OC)c1` (stereo not given), the AC50 is > 30 µM (inactive).
On to `CCOC(=O)c1cc[nH]c1C`, for which the AC50 was > 30 µM (inactive).
`Cc1cc(C)nc(NC(=O)c2ccc(Br)s2)n1`: the AC50 is > 30 µM (inactive).
For `COc1ccc(OC)c(/C=N/NC(=O)c2nnn(-c3nonc3N)c2-c2cccs2)c1`, the AC50 is 1.35 µM.
The figure for `COc1ccccc1Nc1nc(C)cc(C)n1` is > 30 µM (inactive); for `O=c1[nH]c2c(s1)C(c1ccc(O)cc1)C1C3CCC(C3)C1S2` (stereo not given) it is 0.649 µM.
The figure for `CCOc1ccc(Nc2nc(N(C)c3ccccc3)nc(N)c2[N+](=O)[O-])cc1` is > 30 µM (inactive); for `COc1ccc(-c2nsc3c(N4CCCCC4C)ncnc23)cc1` (stereo not given) it is > 30 µM (inactive); for `CCNc1ccc2noc3c2c1C(=O)c1ccccc1-3` it is 10.8 µM.
